Data: the supplement of paper PMC8837787

These compounds were tested on Saccharomyces cerevisiae ABC16-Green Monster (assay: growth inhibition at single dose (up to 150 µM), below the 70% cut-off for dose-response; higher = more potent). Conditions: 18 h; 30 °C; YPD.
In short: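 Values are percent growth inhibition of drug-sensitive S. cerevisiae ABC16-Green Monster cells. Cells grown overnight in YPD at 30 °C were diluted to log phase (OD600 0.1–0.2), and each library compound was added at a single dose of 150 µM to 200 µl culture per well in 96-well plates, in biological duplicates, beside untreated cultures. OD600 was read at 0 h and after 18 h at 30 °C, and compounds under 70% in both replicates were not taken to dose-response.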
`O=C(Nc1cccc(Cl)c1)c1cnc(N2CCN(c3ccncc3)CC2)c(Cl)c1` was tested, and the “growth inhibition at single dose” value was under 70%.
With `Cc1[nH]c(-c2ccccn2)nc(=O)c1CC(=O)NC1CCCCCCC1` the “growth inhibition at single dose” value was under 70%.
`c1ccc(Cn2c(N=Nc3c(Nc4ccccc4)ccc4ccccc34)nc3ccccc32)cc1` was tested, and the “growth inhibition at single dose” value was under 70%.
With `N=c1c2ccccc2nnn1-c1cccc(C(F)(F)F)c1` the “growth inhibition at single dose” value was under 70%.
In the case of `CCc1nc(COC(=O)c2c(C)nsc2NC)cs1`, the “growth inhibition at single dose” value is reported as under 70%.
With `O=C(Nc1ccc(N2CCOCC2)cn1)c1ccccc1` the “growth inhibition at single dose” value was under 70%.
With `COc1ccc(C2Sc3ccccc3N=C3C2=C(O)c2ccccc23)cc1` (stereo unspecified) the “growth inhibition at single dose” value was under 70%.
With `O=c1nc(-c2ccccn2)[nH]c2scc(-c3ccccc3)c12` the “growth inhibition at single dose” value was under 70%.
For `Cc1cc(C(=O)CSc2nc3ccccc3[nH]2)c(C)n1-c1ccc(F)cc1`, the “growth inhibition at single dose” value was under 70%.
For `CC(C)NCC(=O)Nc1cccc(C(=O)Nc2cccc(C(F)(F)F)c2)c1`, the “growth inhibition at single dose” value was under 70%.
With `COc1ccc(CCN2C(=O)c3[nH]nc(-c4cc(Cl)c(C)cc4O)c3C2c2ccccc2F)cc1` (stereo unspecified) the “growth inhibition at single dose” value was under 70%.
In the case of `c1coc(CNc2nc(N3CCCCC3)nc3ccccc23)c1`, the “growth inhibition at single dose” value is reported as under 70%.
With `CCC(Sc1nc2ccccc2o1)C(=O)Nc1nccs1` (stereo unspecified) the “growth inhibition at single dose” value was under 70%.
For `O=c1cc(CN2CCCCCC2)nc2sccn12`, the “growth inhibition at single dose” value was under 70%.
In the case of `O=C(Nc1cccc2c[nH]nc12)c1cnc(OCC(F)(F)F)c(Cl)c1`, the “growth inhibition at single dose” value is reported as under 70%.
`CC[n+]1ccccc1/C=C/c1ccc(N(C)C)cc1` was tested, and the “growth inhibition at single dose” value was under 70%.
For `COc1cccc(-c2csc(-c3nnc4n3-c3ccccc3SC4)n2)c1`, the “growth inhibition at single dose” value was under 70%.
In the case of `CCOC(=O)c1cnc2c(C)cccc2c1Nc1ccc(C(C)=O)cc1`, the “growth inhibition at single dose” value is reported as under 70%.
With `COc1ccc(CN2CCN(C(=O)c3ccc(-n4cccn4)cc3)CC2)cc1F` the “growth inhibition at single dose” value was under 70%.
`Cc1ccccc1-n1c(SCC(=O)NC2CCCCC2)nc(O)cc1=O` was tested, and the “growth inhibition at single dose” value was under 70%.
With `FC(F)(F)c1ccc(NCCNc2ccc(C(F)(F)F)cn2)nc1` the “growth inhibition at single dose” value was under 70%.
With `FC(F)(F)c1cccc(CNc2ncnc3sccc23)c1` the “growth inhibition at single dose” value was under 70%.
In the case of `O=C(N/N=C/c1ccc(O)cc1O)c1ccc[n+]([O-])c1`, the “growth inhibition at single dose” value is reported as under 70%.
With `CCOc1ccc(CCNC(=O)c2cccs2)cc1OCC` the “growth inhibition at single dose” value was under 70%.
In the case of `c1cc(C2=NCCN2)cc(-c2cc(-c3ccc(C4=NCCN4)cc3)no2)c1`, the “growth inhibition at single dose” value is reported as under 70%.
For `Nc1ncnc2c1c(Cc1cccc3ccccc13)nn2CC1CCNCC1`, the “growth inhibition at single dose” value was under 70%.
With `Cc1cc(Nc2ccncc2)n2nc(C)c(-c3ccccc3Cl)c2n1` the “growth inhibition at single dose” value was under 70%.
In the case of `C=C(C)COc1ccc(-c2n[nH]c(C)c2-c2ccc(OC)c(OC)c2)c(O)c1`, the “growth inhibition at single dose” value is reported as under 70%.
`CCOC(=O)c1cn(CC)c2cc(N3CCCCC3)c(F)cc2c1=O` was tested, and the “growth inhibition at single dose” value was under 70%.
`CC1=Nc2ccc(Cl)cc2C(O)(c2ccc(C)cc2)N1CCN1CCCCC1` (stereo unspecified) was tested, and the “growth inhibition at single dose” value was under 70%.
`COC(=O)c1cccc2oc(-c3cccc(OC)c3NC(=O)c3cc(-c4ccccc4)on3)nc12` was tested, and the “growth inhibition at single dose” value was under 70%.
In the case of `Clc1ccc2c(N3CCCC3)ccnc2c1`, the “growth inhibition at single dose” value is reported as under 70%.
With `CCOC(=O)N1CCC(N/C=C(\C#N)S(=O)(=O)c2ccc(Cl)cc2)CC1` the “growth inhibition at single dose” value was under 70%.
`CCOc1cc2c(cc1OCC)C(c1cc(OC)c(O)cc1Cl)NCC2` (stereo unspecified) was tested, and the “growth inhibition at single dose” value was under 70%.
`CCOc1ccccc1CN1CCc2nc3cc(C(C)(C)C)nn3c(O)c2C1` was tested, and the “growth inhibition at single dose” value was under 70%.
In the case of `CCCCN1C(=O)C(=O)N(CC(=O)Nc2sc(Cc3ccc4c(c3)OCO4)c(C)c2C(=O)OCC)C1=O`, the “growth inhibition at single dose” value is reported as under 70%.
In the case of `CC(C)(C)c1ccc(C2CC3=Nc4ccccc4N(C(=O)c4ccccc4Cl)C(c4ccc(F)cc4)C3=C(O)C2)cc1` (stereo unspecified), the “growth inhibition at single dose” value is reported as under 70%.
With `C[C@@H]1[C@H](O)[C@@H](C)/C=C/C=C/C=C/C=C/C=C/C=C/C=C/[C@H](O[C@@H]2O[C@H](C)[C@@H](O)[C@H](N)[C@@H]2O)C[C@@H]2O[C@](O)(C[C@@H](O)C[C@@H](O)[C@H](O)CC[C@@H](O)C[C@@H](O)CC(=O)O[C@H]1C)C[C@H](O)[C@H]2C(=O)O` the “growth inhibition at single dose” value was under 70%.
In the case of `CS(=O)(=O)N1CCC(Cn2nc(Cc3cccc4ccccc34)c3c(N)ncnc32)CC1`, the “growth inhibition at single dose” value is reported as under 70%.
For `Oc1ccc(Br)cc1CN1CCN(Cc2ccc(Cl)cc2)CC1`, the “growth inhibition at single dose” value was under 70%.
`COc1cccc2c(C)nc(N=C(N)N)nc12` was tested, and the “growth inhibition at single dose” value was under 70%.
`C[C@H](C(N)=O)N1CCCC[C@@H]1c1ccc(OCc2cccc(F)c2)cc1` was tested, and the “growth inhibition at single dose” value was under 70%.
`O=C(Nc1ncccc1O)c1ccc(-n2cnc3ccccc32)cc1` was tested, and the “growth inhibition at single dose” value was under 70%.
In the case of `COc1cccc(C(=O)NC(c2ccc(C)cc2)c2cc(Cl)c3cccnc3c2O)c1` (stereo unspecified), the “growth inhibition at single dose” value is reported as under 70%.
In the case of `CCOC(=O)c1[nH]c(C)c(C(=O)CN(C)S(=O)(=O)c2c(C)noc2C)c1C`, the “growth inhibition at single dose” value is reported as under 70%.
In the case of `COc1ccc(-c2nc3cc(Cc4ccc5[nH]c(-c6ccc(OC)cc6)nc5c4)ccc3[nH]2)cc1`, the “growth inhibition at single dose” value is reported as under 70%.
